Reference: paper PMC5564600 (Oncotarget, 2017)

What was measured:
Assay in all cases: biochemical
Format in all cases: binding
panel of 442 kinases [1] = target: T1, panel of 442 kinases (Homo sapiens, UniProt Q86V86); settings: kinase PIM3; for remaining activity at 1 µM: read-out: % of control at 1 µM
T1 construct: purchased Ambit Biosciences (scanMAXX KINOMEscan)

panel of 442 kinases [2] = target: T2, panel of 442 kinases (Homo sapiens, UniProt Q8N568); settings: DCAMKL2; for remaining activity at 1 µM: read-out: % of control at 1 µM
T2 construct: purchased Ambit Biosciences (scanMAXX KINOMEscan)

panel of 442 kinases [3] = target: T3, panel of 442 kinases (Homo sapiens, UniProt P43403); settings: kinase ZAP70; for remaining activity at 1 µM: read-out: ZAP70 (% of control at 1 µM)
T3 construct: purchased Ambit Biosciences (scanMAXX KINOMEscan)
T3 sequence (P43403 1-619): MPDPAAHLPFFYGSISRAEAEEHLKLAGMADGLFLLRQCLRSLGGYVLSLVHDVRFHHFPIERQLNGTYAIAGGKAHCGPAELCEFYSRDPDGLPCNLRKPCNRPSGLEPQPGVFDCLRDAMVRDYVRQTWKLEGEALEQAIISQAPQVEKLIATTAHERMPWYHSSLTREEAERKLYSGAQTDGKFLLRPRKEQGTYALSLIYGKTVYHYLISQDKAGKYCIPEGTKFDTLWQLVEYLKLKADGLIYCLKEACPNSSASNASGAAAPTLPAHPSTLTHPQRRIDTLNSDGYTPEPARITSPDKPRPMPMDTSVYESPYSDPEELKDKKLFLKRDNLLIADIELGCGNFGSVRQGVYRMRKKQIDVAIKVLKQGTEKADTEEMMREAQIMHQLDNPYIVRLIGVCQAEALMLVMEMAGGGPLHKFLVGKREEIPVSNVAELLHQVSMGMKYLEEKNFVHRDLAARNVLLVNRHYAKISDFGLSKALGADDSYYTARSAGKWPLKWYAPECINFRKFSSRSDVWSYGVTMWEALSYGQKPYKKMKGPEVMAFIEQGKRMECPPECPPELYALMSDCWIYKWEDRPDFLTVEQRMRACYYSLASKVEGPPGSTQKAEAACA

panel of 442 kinases [4] = target: T4, panel of 442 kinases (Homo sapiens, UniProt O00238); settings: BMPR1B; for remaining activity at 1 µM: read-out: % of control at 1 µM
T4 construct: purchased Ambit Biosciences (scanMAXX KINOMEscan)

panel of 442 kinases [5] = target: T5, panel of 442 kinases (Homo sapiens, UniProt Q99683); settings: ASK1; for remaining activity at 1 µM: read-out: % of control at 1 µM
T5 construct: purchased Ambit Biosciences (scanMAXX KINOMEscan)
T5 sequence (Q99683 1-1374): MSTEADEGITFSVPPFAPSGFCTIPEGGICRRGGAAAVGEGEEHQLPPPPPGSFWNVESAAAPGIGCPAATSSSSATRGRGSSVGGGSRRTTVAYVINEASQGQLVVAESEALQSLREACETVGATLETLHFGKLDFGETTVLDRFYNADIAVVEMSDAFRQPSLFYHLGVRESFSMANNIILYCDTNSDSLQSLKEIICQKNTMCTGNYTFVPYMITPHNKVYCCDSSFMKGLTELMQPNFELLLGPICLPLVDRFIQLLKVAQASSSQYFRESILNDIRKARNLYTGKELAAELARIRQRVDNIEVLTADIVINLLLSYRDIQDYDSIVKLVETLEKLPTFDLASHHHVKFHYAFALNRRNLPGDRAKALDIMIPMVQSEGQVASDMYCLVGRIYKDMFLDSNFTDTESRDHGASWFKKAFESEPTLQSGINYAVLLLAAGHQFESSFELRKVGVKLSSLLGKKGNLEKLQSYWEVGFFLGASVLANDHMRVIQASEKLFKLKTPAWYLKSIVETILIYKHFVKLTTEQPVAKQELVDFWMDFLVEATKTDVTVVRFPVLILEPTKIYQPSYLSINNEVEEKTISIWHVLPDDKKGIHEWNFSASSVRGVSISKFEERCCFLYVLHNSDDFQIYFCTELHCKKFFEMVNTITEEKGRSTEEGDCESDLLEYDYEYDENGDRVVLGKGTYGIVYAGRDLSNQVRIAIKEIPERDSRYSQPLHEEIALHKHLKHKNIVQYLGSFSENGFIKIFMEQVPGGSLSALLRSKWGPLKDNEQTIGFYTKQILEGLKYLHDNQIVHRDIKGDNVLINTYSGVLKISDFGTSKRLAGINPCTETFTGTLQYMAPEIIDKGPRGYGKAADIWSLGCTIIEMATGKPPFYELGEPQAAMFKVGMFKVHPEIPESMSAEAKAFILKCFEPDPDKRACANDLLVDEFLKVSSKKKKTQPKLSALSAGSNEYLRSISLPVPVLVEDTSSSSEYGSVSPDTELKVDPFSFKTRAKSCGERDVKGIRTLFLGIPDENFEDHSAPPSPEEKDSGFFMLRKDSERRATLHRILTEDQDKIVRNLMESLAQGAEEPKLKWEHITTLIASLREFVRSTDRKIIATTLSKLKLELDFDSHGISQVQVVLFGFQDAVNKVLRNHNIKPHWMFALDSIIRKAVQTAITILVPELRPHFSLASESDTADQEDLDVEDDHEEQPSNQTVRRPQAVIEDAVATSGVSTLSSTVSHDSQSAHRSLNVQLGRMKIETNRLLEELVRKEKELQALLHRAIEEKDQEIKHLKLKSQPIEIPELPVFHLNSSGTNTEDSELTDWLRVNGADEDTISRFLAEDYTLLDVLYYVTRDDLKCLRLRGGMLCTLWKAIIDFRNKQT

panel of 442 kinases [6] = target: T6, panel of 442 kinases (Homo sapiens, UniProt Q86Z02); settings: kinase HIPK1; for remaining activity at 1 µM: read-out: % of control at 1 µM
T6 construct: purchased Ambit Biosciences (scanMAXX KINOMEscan)

panel of 442 kinases [7] = target: T7, panel of 442 kinases (Homo sapiens, UniProt O14733); settings: kinase MKK7; for remaining activity at 1 µM: read-out: % of control at 1 µM
T7 construct: purchased Ambit Biosciences (scanMAXX KINOMEscan)
T7 sequence (O14733 1-419): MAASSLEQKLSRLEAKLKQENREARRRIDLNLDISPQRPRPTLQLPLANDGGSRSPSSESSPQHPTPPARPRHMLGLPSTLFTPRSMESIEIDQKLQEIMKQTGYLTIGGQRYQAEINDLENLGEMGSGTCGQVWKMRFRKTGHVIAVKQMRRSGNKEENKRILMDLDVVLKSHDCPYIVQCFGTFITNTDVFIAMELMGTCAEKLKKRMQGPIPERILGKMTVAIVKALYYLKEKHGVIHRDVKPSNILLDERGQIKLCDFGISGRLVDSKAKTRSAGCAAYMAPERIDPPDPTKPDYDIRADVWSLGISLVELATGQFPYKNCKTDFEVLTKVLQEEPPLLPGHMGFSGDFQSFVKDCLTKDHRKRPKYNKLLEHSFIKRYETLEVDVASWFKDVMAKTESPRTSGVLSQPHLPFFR

panel of 442 kinases [8] = target: T8, panel of 442 kinases (Homo sapiens, UniProt P07949); settings: kinase RET; for remaining activity at 1 µM: read-out: RET (% of control at 1 µM)
T8 construct: purchased Ambit Biosciences (scanMAXX KINOMEscan)

[9] = 10 µM, read-out: % of control at 10 µM

T8 sequence (P07949 29-1114): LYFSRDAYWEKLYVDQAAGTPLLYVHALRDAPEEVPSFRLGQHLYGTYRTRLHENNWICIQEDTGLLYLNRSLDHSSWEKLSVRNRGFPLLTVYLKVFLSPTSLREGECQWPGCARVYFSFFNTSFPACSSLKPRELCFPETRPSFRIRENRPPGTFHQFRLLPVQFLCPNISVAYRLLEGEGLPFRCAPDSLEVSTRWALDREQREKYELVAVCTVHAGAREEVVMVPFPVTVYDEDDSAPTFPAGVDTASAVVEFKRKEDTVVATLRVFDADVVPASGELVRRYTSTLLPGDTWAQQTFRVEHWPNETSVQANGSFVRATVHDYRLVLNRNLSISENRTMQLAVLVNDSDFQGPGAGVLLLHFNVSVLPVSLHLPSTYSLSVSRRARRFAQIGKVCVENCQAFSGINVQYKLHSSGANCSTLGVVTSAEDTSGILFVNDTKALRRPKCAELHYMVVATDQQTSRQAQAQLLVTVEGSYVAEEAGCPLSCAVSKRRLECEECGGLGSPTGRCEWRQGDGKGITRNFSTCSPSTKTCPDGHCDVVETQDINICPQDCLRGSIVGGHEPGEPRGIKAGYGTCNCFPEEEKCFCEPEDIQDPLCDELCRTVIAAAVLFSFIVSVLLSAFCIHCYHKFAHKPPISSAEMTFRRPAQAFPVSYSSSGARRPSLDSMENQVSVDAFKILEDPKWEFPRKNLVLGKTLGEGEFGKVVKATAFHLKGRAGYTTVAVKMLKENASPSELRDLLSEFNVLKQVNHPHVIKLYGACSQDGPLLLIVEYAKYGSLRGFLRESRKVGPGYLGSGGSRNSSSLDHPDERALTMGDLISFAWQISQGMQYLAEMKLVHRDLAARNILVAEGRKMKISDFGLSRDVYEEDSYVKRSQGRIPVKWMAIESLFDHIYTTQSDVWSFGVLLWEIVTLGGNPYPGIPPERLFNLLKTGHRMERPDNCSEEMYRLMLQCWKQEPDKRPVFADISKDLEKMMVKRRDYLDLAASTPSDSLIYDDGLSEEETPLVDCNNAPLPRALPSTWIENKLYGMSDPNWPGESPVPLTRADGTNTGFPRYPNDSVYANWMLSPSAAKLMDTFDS
T4 sequence (O00238 14-502): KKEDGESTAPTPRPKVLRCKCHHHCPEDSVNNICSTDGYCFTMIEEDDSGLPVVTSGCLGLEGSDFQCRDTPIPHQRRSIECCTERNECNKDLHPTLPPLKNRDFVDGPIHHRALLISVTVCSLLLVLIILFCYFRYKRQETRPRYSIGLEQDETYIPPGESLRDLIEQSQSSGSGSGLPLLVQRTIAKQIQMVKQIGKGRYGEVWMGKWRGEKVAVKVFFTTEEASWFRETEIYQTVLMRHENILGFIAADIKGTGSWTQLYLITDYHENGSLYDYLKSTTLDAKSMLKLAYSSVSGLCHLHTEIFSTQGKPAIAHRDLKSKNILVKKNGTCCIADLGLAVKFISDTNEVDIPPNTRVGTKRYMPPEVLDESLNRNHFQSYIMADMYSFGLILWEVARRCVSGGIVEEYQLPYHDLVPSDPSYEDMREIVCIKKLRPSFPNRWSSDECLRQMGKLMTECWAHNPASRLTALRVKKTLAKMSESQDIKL
T6 sequence (Q86Z02 whole entry): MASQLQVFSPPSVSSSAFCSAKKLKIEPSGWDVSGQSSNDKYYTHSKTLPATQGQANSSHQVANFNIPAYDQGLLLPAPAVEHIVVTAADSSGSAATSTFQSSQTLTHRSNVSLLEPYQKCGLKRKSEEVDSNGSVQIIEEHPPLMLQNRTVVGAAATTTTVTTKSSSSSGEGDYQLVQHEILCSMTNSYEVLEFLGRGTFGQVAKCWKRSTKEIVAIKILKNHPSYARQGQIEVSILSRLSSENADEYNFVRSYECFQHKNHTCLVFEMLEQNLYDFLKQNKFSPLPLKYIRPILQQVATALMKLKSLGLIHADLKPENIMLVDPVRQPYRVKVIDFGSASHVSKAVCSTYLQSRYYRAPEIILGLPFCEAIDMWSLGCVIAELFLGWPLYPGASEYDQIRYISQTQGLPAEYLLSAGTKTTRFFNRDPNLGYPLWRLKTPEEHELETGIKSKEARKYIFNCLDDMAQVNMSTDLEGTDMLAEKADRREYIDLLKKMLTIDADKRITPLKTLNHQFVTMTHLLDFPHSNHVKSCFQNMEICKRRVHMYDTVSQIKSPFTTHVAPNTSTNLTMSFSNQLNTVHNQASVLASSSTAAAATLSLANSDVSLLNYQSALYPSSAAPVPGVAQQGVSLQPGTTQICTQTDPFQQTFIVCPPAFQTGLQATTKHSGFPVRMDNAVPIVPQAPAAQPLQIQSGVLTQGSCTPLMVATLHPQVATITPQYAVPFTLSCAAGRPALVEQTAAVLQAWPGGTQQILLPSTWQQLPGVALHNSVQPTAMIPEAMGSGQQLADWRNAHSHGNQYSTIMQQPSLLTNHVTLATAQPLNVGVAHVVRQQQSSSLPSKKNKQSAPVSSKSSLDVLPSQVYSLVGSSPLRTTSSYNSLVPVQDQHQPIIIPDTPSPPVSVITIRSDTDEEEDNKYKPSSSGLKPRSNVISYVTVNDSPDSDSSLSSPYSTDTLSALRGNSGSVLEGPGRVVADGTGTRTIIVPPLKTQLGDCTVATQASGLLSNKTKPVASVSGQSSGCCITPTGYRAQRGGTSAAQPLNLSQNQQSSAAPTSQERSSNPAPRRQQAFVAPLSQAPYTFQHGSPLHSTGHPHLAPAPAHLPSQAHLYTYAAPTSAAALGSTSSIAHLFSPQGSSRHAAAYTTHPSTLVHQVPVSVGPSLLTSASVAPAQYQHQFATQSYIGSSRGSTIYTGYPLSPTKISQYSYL
T2 sequence (Q8N568 whole entry): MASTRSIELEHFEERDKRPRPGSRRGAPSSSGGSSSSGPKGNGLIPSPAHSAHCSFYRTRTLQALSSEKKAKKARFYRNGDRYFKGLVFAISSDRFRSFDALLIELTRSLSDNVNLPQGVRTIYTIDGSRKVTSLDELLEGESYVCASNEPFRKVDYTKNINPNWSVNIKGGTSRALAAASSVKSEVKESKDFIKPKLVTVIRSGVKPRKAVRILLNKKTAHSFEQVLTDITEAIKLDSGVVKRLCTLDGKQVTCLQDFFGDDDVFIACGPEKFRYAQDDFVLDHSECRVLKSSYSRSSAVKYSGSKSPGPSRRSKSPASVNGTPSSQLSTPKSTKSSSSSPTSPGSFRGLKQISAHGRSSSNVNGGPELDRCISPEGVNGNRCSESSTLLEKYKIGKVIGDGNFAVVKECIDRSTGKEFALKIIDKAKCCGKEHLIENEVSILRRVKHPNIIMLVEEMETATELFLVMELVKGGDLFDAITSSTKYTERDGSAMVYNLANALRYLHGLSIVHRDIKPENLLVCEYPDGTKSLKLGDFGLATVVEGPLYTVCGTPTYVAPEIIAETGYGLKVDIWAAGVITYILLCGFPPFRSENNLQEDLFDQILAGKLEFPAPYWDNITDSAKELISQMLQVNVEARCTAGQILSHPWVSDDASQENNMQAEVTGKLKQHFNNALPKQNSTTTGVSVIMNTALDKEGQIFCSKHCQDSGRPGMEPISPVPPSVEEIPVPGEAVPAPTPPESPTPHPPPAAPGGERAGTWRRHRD

Row | Structure (SMILES) | remaining activity at 1 µM (panel of 442 kinases [1]) [%] | remaining activity at 10 µM (panel of 442 kinases [1]; [9]) [%] | remaining activity at 1 µM (panel of 442 kinases [2]) [%] | remaining activity at 10 µM (panel of 442 kinases [2]; [9]) [%] | remaining activity at 1 µM (panel of 442 kinases [3]) [%] | remaining activity at 10 µM (panel of 442 kinases [3]; 10 µM, read-out: ZAP70 (% of control at 10 µM)) [%] | remaining activity at 1 µM (panel of 442 kinases [4]) [%] | remaining activity at 10 µM (panel of 442 kinases [4]; [9]) [%] | remaining activity at 1 µM (panel of 442 kinases [5]) [%] | remaining activity at 10 µM (panel of 442 kinases [5]; [9]) [%] | remaining activity at 1 µM (panel of 442 kinases [6]) [%] | remaining activity at 10 µM (panel of 442 kinases [6]; [9]) [%] | remaining activity at 1 µM (panel of 442 kinases [7]) [%] | remaining activity at 10 µM (panel of 442 kinases [7]; [9]) [%] | remaining activity at 1 µM (panel of 442 kinases [8]) [%] | remaining activity at 10 µM (panel of 442 kinases [8]; 10 µM, read-out: RET (% of control at 10 µM)) [%]
1 | Nc1cc(C(F)(F)F)c(-c2cc(N3CCOCC3)nc(N3CCOCC3)n2)cn1 [Buparlisib] | 100 | 93 | 100 | 100 | 100 | 100 | 100 | 100 | 87 | 94 | 100 | 89 | 100 | 99 | 97 | 100
2 | COc1ncc(-c2ccc3nccc(-c4ccnnc4)c3c2)cc1NS(=O)(=O)c1ccc(F)cc1F [Omipalisib] | 86 |  | 100 |  | 100 |  | 87 |  | 100 |  | 99 |  | 100 |  | 94 | 
3 | FC(F)c1nc2ccccc2n1-c1nc(N2CCOCC2)nc(N2CCOCC2)n1 [ZSTK474, 2-(difluoromethyl)-1-[4,6-di(4-morpholinyl)-1,3,5-triazin-2-yl]-1H-benzimidazole] | 95 |  | 100 |  | 94 |  | 94 |  | 100 |  | 86 |  | 100 |  | 100 | 
4 | Cn1c(=O)n(-c2ccc(C(C)(C)C#N)cc2)c2c3cc(-c4cnc5ccccc5c4)ccc3ncc21 [Dactolisib, 2-methyl-2-[4-(3-methyl-2-oxo-8-quinolin-3-yl-2,3-dihydroimidazo[4,5-c]quinolin-1-yl)-phenyl] propionitrile] | 100 |  | 94 |  | 99 |  | 91 |  | 100 |  | 72 |  | 100 |  | 100 | 
